One experiment concerns the target CatC (Homo sapiens (Human), UniProt P53634). The experiment in a line: In vitro CatC cell activity experiment in U937 cell line. Format: cell-based. On the procedure: The U937 cell line was resuscitated and passed for about two generations, and the cell line with good growth status was selected. The cell suspension was transferred into a centrifuge tube, and centrifuged at 800 to 1000 rpm for 3 to 5 minutes. The supernatant was discarded. An appropriate volume of culture medium was added to the centrifuge tube, which was gently pipetted to resuspend the cells evenly. The cells were counted using a Vi-Cell XR cell counter. The cell suspension was adjusted to an appropriate concentration. The cell suspension was added into a 384-well plate ([…]). The compound was formulated into a 10 mM solution with DMSO. The compound was diluted with DMSO to obtain a 1 mM solution, and a semi-logarithmi dilution was carried out by HPD300 with DMSO to obtain 10 concentrations. Gly-Phe-AFC was formulated into a 35 mM solution with DMSO and divided. […] After adding the compounds and incubating for 1 hour in an incubator, substrate-AFC was added (12.5 μL was added to the plate). The plate was incubated for 30 minutes and read. […] XLFit was used to draw the drug efficacy inhibition rate curve and calculate the IC50 value. 4-parameter model [fit=(A+((B−A)/(1+((C/x)^D))))] was used.

A further experiment deals with rhCatC (Homo sapiens (Human), UniProt P53634). The experiment in a line: In vitro enzyme activity experiment of rhCatC (AMC fluorescence assay). Format: biochemical. Conditions: rhCatC enzyme, substrate H-Gly-Arg-AMC; read-out: Biological activity IC50. Here is the method: The in vitro inhibitory effect of compounds and positive control on rhCatC enzyme activity was evaluated by AMC fluorescence assay. rhCatC can catalyze the reaction of substrate peptide H-Gly-Arg-AMC, and release AMC to generate fluorescence. […] The compound was diluted with DMSO to a 384-well echo plate at a concentration of 100× of the highest concentration at the beginning of the experiment. 0.2 μL of the diluted compound was pipetted to a black-bottomed 384-well reaction plate for later use. The negative control well was DMSO. • 2) Activation of rhCatC: RhCatC and rhCatL were added to the activation buffer to obtain a final concentration of rhCatC of 100 μg/mL and a final concentration of rhCatL of 20 μg/mL, and incubated at room temperature for 1 hour. • 3) Enzyme activity reaction: Activated rhCatC was diluted to 0.4 μg/mL with the reaction buffer. The solution was added to the black-bottom 384-well reaction plate ([…]). 10 μL of the buffer was added for the vehicle control group. The plate containing compounds in its wells was incubated at room temperature for 30 minutes.
rhCatC, sequence (P53634 25-134): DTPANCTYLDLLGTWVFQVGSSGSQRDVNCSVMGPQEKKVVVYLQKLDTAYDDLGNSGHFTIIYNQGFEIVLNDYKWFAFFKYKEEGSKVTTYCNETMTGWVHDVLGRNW
rhCatC, sequence (P53634 231-394): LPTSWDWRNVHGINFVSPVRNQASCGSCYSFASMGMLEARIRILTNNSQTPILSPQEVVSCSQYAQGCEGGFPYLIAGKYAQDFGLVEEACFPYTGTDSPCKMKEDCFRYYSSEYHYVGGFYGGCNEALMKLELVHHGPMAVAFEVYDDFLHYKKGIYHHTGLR
rhCatC, sequence (P53634 395-463): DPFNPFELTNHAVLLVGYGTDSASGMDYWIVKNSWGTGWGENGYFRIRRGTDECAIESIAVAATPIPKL
The RLU data was read, the inhibition rate was calculated, and the IC50 value was calculated according to the fitting curve of concentration and inhibition rate.

[1] abbreviates: U937 cells, CatC cell activity, read-out: Biological activity IC50.

Where a name gives a salt, the structure may show the parent alone. Read-outs that look alike come from different tables or passages of the source.

For the compound `N#CC(Cc1ccc2c(c1)CCc1ccccc1-2)NC(=O)C1(N)CCOCC1` (stereo not drawn) [Compound 7, 4-Amino-N-(1-cyano-2-(9,10-dihydrophenanthren-2-yl)ethyl)tetrahydro-2H-pyran-4-carboxamide], the IC50 on CatC (setting [1]) is 0.0102 µM; on rhCatC, 0.0068 µM.
Consider `N#C[C@H](Cc1ccc2c(c1)CCc1ccccc1-2)NC(=O)[C@@H]1CNCCCO1` [Compound 8, (S)—N—((S)-1-Cyano-2-(9,10-dihydrophenanthren-2-yl)ethyl)-1,4-oxazepane-2-carboxamide], for which the figures for the IC50 at CatC (setting [1]) and at rhCatC were 0.22 µM and 0.06 µM, respectively.
For `N#CC(Cc1cc2c(cc1F)-c1ccc(F)cc1CO2)NC(=O)[C@@H]1CNCCCO1` (stereo partly drawn) [Compound 12, (2S)—N-(1-Cyano-2-(2,8-difluoro-6H-benzo[c]chromen-3-yl)ethyl)-1,4-oxazepane-2-carboxamide], the IC50 was found to be 0.023 µM on CatC and 0.016 µM on rhCatC.
For `N#Cc1ccc2c(c1)COc1cc(CC(C#N)NC(=O)[C@@H]3CNCCCO3)ccc1-2` (stereo partly drawn) [Compound 13, (2S)—N-(1-Cyano-2-(8-cyano-6H-benzo[c]chromen-3-yl)ethyl)-1,4-oxazepane-2-carboxamide] the same measures were 0.0876 µM and 0.037 µM.
For the compound `N#C[C@H](Cc1ccc2c(c1)OCc1cc(F)c(F)cc1-2)NC(=O)[C@@H]1CNCCCO1` [Compound 16, (S)—N—((S)-1-Cyano-2-(8,9-difluoro-6H-benzo[c]chromen-3-yl)ethyl)-1,4-oxazepane-2-carboxamide], the IC50 was 0.186 µM against CatC and 0.091 µM on rhCatC.
For `N#C[C@H](Cc1ccc2c(c1)OCc1cc(F)c(F)cc1-2)NC(=O)C1(N)CCOCC1` [Compound 17, (S)-4-Amino-N-(1-cyano-2-(8,9-difluoro-6H-benzo[c]chromen-3-yl)ethyl)tetrahydro-2H-pyran-4-carboxamide] the same measures were 0.0062 µM and 0.0057 µM.
Consider `N#Cc1cc2c(cn1)-c1cc(F)c(CC(C#N)NC(=O)[C@@H]3CNCCCO3)cc1OC2` (stereo partly drawn) [Compound 18, (2S)—N-(1-Cyano-2-(3-cyano-9-fluoro-5H-chromeno[4,3-c]pyridin-8-yl)ethyl)-1,4-oxazepane-2-carboxamide], for which the IC50 against CatC amounted to 0.0295 µM; at rhCatC, 0.049 µM.
Turning to `N#C[C@H](Cc1cc2c(cc1F)-c1ccc(F)cc1CO2)NC(=O)[C@@H]1CNCCCO1` [Compound 20, (S)—N—((S)-1-Cyano-2-(2,8-difluoro-6H-benzo[c]chromen-3-yl)ethyl)-1,4-oxazepane-2-carboxamide], the IC50 against CatC stood at 0.0078 µM; at rhCatC it was 0.011 µM.
As for `N#Cc1ccc2c(c1)COc1cc(C[C@@H](C#N)NC(=O)[C@@H]3CNCCCO3)c(Cl)cc1-2` [Compound 21, (S)—N—((S)-2-(2-Chloro-8-cyano-6H-benzo[c]chromen-3-yl)-1-cyanoethyl)-1,4-oxazepane-2-carboxamide], the IC50 against CatC was determined as 0.0246 µM.
Regarding `N#CC(Cc1ccc2c(c1)OCc1cc(F)ccc1-2)NC(=O)C1(N)CCOCC1` (stereo not drawn) [Compound 22, 4-Amino-N-(1-cyano-2-(8-fluoro-6H-benzo[c]chromen-3-yl)ethyl)tetrahydro-2H-pyran-4-carboxamide formate], the IC50 on CatC is 0.0055 µM; on rhCatC, 0.0032 µM.
For the compound `N#CC(Cc1cc2c(cc1F)-c1ccc(F)cc1CO2)NC(=O)C1(N)CCOCC1` (stereo not drawn) [Compound 24, 4-Amino-N-(1-cyano-2-(2,8-difluoro-6H-benzo[c]chromen-3-yl)ethyl)tetrahydro-2H-pyran-4-carboxamide], the IC50 was 0.0043 µM on CatC and 0.0027 µM on rhCatC.
For `N#Cc1ccc2c(c1)COc1cc(CC(C#N)NC(=O)C3(N)CCOCC3)ccc1-2` (stereo not drawn) [Compound 25, 4-Amino-N-(1-cyano-2-(8-cyano-6H-benzo[c]chromen-3-yl)ethyl)tetrahydro-2H-pyran-4-carboxamide] the same measures were 0.00552 µM and 0.0031 µM.
For `N#Cc1ccc2c(c1)COc1cc(C[C@@H](C#N)NC(=O)[C@@H]3C[C@@H]4CCC[C@@H]4N3)c(F)cc1-2` [Compound 26, (2S,3aS,6aS)—N—((S)-1-Cyano-2-(8-cyano-2-fluoro-6H-benzo[c]chromen-3-yl)ethyl)octahydrocyclopenta[b]pyrrole-2-carboxamide], the IC50 turned out to be 0.0067 µM on CatC (setting [1]) and 0.0089 µM on rhCatC.
For the compound `N#CC(Cc1ccc2c(c1)OCc1ccc(C3COC3)cc1-2)NC(=O)[C@@H]1CNCCCO1` (stereo partly drawn) [Compound 28, (2S)—N-(1-Cyano-2-(9-(oxetan-3-yl)-6H-benzo[c]chromen-3-yl)ethyl)-1,4-oxazepane-2-carboxamide], on CatC, the IC50 was 0.0501 µM.
Turning to `CS(=O)(=O)c1ccc2c(c1)COc1cc(CC(C#N)NC(=O)[C@@H]3CNCCCO3)c(F)cc1-2` (stereo partly drawn) [Compound 29, (2S)—N-(1-Cyano-2-(2-fluoro-8-(methylsulfonyl)-6H-benzo[c]chromen-3-yl)ethyl)-1,4-oxazepane-2-carboxamide], the 50% inhibitory concentration (IC50) against CatC was determined as 0.0368 µM; at rhCatC, 0.0171 µM.
In turn, `N#Cc1ccc2c(c1)-c1cc(F)c(CC(C#N)NC(=O)[C@@H]3CNCCCO3)cc1OC2` (stereo partly drawn) [Compound 31, (2S)—N-(1-Cyano-2-(9-cyano-2-fluoro-6H-benzo[c]chromen-3-yl)ethyl)-1,4-oxazepane-2-carboxamide] displayed an IC50 against CatC of 0.0384 µM.
As to `N#C[C@H](Cc1ccc2c(c1)CCN(c1ccccc1)C2=O)NC(=O)C1(N)CCOCC1` [Compound 49, (S)-4-Amino-N-(1-cyano-2-(1-oxo-2-phenyl-1,2,3,4-tetrahydroisoquinolin-6-yl)ethyl)tetrahydro-2H-pyran-4-carboxamide], the IC50 at rhCatC is 0.057 µM.
Turning to `N#C[C@H](Cc1ccc2c(c1)C(=O)N(c1ccccc1)C2)NC(=O)C1(N)CCOCC1` [Compound 50, (S)-4-Amino-N-(1-cyano-2-(3-oxo-2-phenylisoindolin-5-yl)ethyl)tetrahydro-2H-pyran-4-carboxamide], the IC50 on rhCatC turned out to be 0.019 µM.
On to `CN1CCc2cc(C[C@@H](C#N)NC(=O)C3(N)CCOCC3)ccc2C1` [Compound 51, (S)-4-Amino-N-(1-cyano-2-(2-methyl-1,2,3,4-tetrahydroisoquinolin-6-yl)ethyl)tetrahydro-2H-pyran-4-carboxamide], for which the IC50 at rhCatC amounted to 0.039 µM.
Take `N#C[C@H](Cc1ccc2c(c1)COCC2)NC(=O)C1(N)CCOCC1` [Compound 52, (S)-4-Amino-N-(1-cyano-2-(isochroman-7-yl)ethyl)tetrahydro-2H-pyran-4-carboxamide trifluoroacetate]: the IC50 on rhCatC came out at 0.138 µM.
Still for that read-out and setting: under `N#C[C@H](Cc1ccc2c(c1)OCCN(c1ccc(F)cc1)C2)NC(=O)C1(N)CCOCC1` [Compound 53, (S)-4-Amino-N-(1-cyano-2-(4-(4-fluorophenyl)-2,3,4,5-tetrahydrobenzo[f][1,4]oxazepin-8-yl)ethyl)tetrahydro-2H-pyran-4-carboxamide] stands 0.196 µM; under `N#C[C@H](Cc1ccc2c(c1)CN(c1ccc(F)cc1)C2)NC(=O)C1(N)CCOCC1` [Compound 54, (S)-4-Amino-N-(1-cyano-2-(2-(4-fluorophenyl)isoindolin-5-yl)ethyl)tetrahydro-2H-pyran-4-carboxamide], 0.028 µM.
Consider `N#C[C@H](Cc1ccc2c(c1)CN(C(=O)c1ccc(F)cc1)C2)NC(=O)C1(N)CCOCC1` [Compound 55, (S)-4-Amino-N-(1-cyano-2-(2-(4-fluorobenzoyl)isoindolin-5-yl)ethyl)tetrahydro-2H-pyran-4-carboxamide], for which the IC50 at rhCatC came out at 0.174 µM.
`N#C[C@H](Cc1ccc2c(c1)CCN(C(=O)c1ccc(F)cc1)C2)NC(=O)C1(N)CCOCC1` [Compound 56, (S)-4-Amino-N-(1-cyano-2-(2-(4-fluorobenzoyl)-1,2,3,4-tetrahydroisoquinolin-6-yl)ethyl)tetrahydro-2H-pyran-4-carboxamide]: the concentration for half-maximal inhibition (IC50) on rhCatC worked out at 0.037 µM.
The same measure, in the same setting: under `N#C[C@H](Cc1ccc2c(c1)CCN(c1ccc(F)cc1)C2)NC(=O)C1(N)CCOCC1` [Compound 57, (S)-4-Amino-N-(1-cyano-2-(2-(4-fluorophenyl)-1,2,3,4-tetrahydroisoquinolin-6-yl)ethyl)tetrahydro-2H-pyran-4-carboxamide] stands 0.048 µM.
`N#C[C@H](Cc1ccc2c(c1)CC(=O)N(c1ccc(F)cc1)C2)NC(=O)C1(N)CCCCC1` [Compound 58, (S)-1-Amino-N-(1-cyano-2-(2-(4-fluorophenyl)-3-oxo-1,2,3,4-tetrahydroisoquinolin-6-yl)ethyl)cyclohexane-1-carboxamide]: the IC50 at CatC (setting [1]) is 0.0993 µM.

Source of the values: US20240083888A1, “SMALL MOLECULE INHIBITOR FOR CATHEPSIN C AND MEDICINAL USE THEREOF” (REISTONE BIOPHARMA COMPANY LIMITED, priority 2020, published 2024).
